These results are taken from patent publication US11117900B2 (Vertex Pharmaceuticals Incorporated, priority 2012, dated 2021).

The subject of the test is HCT116 colorectal cancer cells. In words: Cisplatin sensitization assay (96 h MTS cell viability).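 Further: compound concentration needed to lower the IC50 of Cisplatin alone by a set fold.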 The note with it: Cisplatin sensitization value. The format is cell-based. In short, it runs like this:
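HCT116 cells were dosed simultaneously with compound and cisplatin as a full matrix of 2-fold serial dilutions from 10 μM top final concentration. Incubation was 96 h at 37° C., 5% CO2, followed by 1 h with MTS reagent for the viability read-out. Sensitization values were binned into +++, ++ and + categories.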
Take `Cc1nn(C)cc1-c1ccncc1NC(=O)c1c(N)nn2cc(F)cnc12` [I-C-63, 2-amino-N-(4-(1,3-dimethyl-1H-pyrazol-4-yl)pyridin-3-yl)-6-fluoropyrazolo[1,5-a]pyrimidine-3-carboxamide]: the “Cisplatin Sensitization Assay” value is recorded as “+++ (Compounds with a Cisplatin sensitization value of <0.02 μM are marked with “+++.”)”.
Then `Nc1nn2cc(F)cnc2c1C(=O)Nc1cncc(Cl)c1N1CCNCC1` [I-N-126, 2-amino-N-(5-chloro-4-(piperazin-1-yl)pyridin-3-yl)-6-fluoropyrazolo[1,5-a]pyrimidine-3-carboxamide], with “+++ (Compounds with a Cisplatin sensitization value of <0.02 μM are marked with “+++.”)”; and `Nc1nn2cc(F)cnc2c1C(=O)Nc1cnccc1N1CCC(C(=O)N2CCOCC2)CC1` [I-G-85, 2-amino-6-fluoro-N-(4-(4-(morpholine-4-carbonyl)piperidin-1-yl)pyridin-3-yl)pyrazolo[1,5-a]pyrimidine-3-carboxamide], with “+++ (Compounds with a Cisplatin sensitization value of <0.02 μM are marked with “+++.”)”; and `Nc1nn2cc(Cl)cnc2c1C(=O)Nc1cncc(F)c1N1CCC(C(=O)N2CCN3CCC2CC3)CC1` [I-G-87, N-(4-(4-(1,4-diazabicyclo[3.2.2]nonane-4-carbonyl)piperidin-1-yl)-5-fluoropyridin-3-yl)-2-amino-6-chloropyrazolo[1,5-a]pyrimidine-3-carboxamide], with “+++ (Compounds with a Cisplatin sensitization value of <0.02 μM are marked with “+++.”)”.
With `COCC1CN(C(=O)C2CCN(c3c(F)cncc3NC(=O)c3c(N)nn4cc(F)cnc34)CC2)C1` [I-G-98, 2-amino-6-fluoro-N-(5-fluoro-4-(4-(3-(methoxymethyl)azetidine-1-carbonyl)piperidin-1-yl)pyridin-3-yl)pyrazolo[1,5-a]pyrimidine-3-carboxamide], the “Cisplatin Sensitization Assay” value was “+++ (Compounds with a Cisplatin sensitization value of <0.02 μM are marked with “+++.”)”.
For `Nc1nn2cc(Cl)cnc2c1C(=O)Nc1cnccc1N1CCC(N2CCC23COC3)CC1` [I-N-109, N-(4-(4-(6-oxa-1-azaspiro[3.3]heptan-1-yl)piperidin-1-yl)pyridin-3-yl)-2-amino-6-chloropyrazolo[1,5-a]pyrimidine-3-carboxamide] the value was “+++ (Compounds with a Cisplatin sensitization value of <0.02 μM are marked with “+++.”)”.
Then `Nc1nn2cc(F)cnc2c1C(=O)Nc1cncc(F)c1N1CCC(C(=O)N2CCN3CCCC3C2)CC1` (stereo not shown) [I-G-10, 2-amino-6-fluoro-N-(5-fluoro-4-(4-(octahydropyrrolo[1,2-a]pyrazine-2-carbonyl)piperidin-1-yl)pyridin-3-yl)pyrazolo[1,5-a]pyrimidine-3-carboxamide], with “+++ (Compounds with a Cisplatin sensitization value of <0.02 μM are marked with “+++.”)”; and `COC1CCN(c2ccncc2NC(=O)c2c(N)nn3cc(F)cnc23)CC1` [I-N-266, 2-amino-6-fluoro-N-(4-(4-methoxypiperidin-1-yl)pyridin-3-yl)pyrazolo[1,5-a]pyrimidine-3-carboxamide], with “+++ (Compounds with a Cisplatin sensitization value of <0.02 μM are marked with “+++.”)”; and `CN1CC2CN(C(=O)C3CCN(c4c(F)cncc4NC(=O)c4c(N)nn5cc(F)cnc45)CC3)CC2C1` (stereo not shown) [I-G-18, 2-amino-6-fluoro-N-(5-fluoro-4-(4-(5-methyloctahydropyrrolo[3,4-c]pyrrole-2-carbonyl)piperidin-1-yl)pyridin-3-yl)pyrazolo[1,5-a]pyrimidine-3-carboxamide], with “+++ (Compounds with a Cisplatin sensitization value of <0.02 μM are marked with “+++.”)”.
For `Nc1nn2cc(Cl)cnc2c1C(=O)Nc1cnccc1OC1CCOCC1` [I-O-61, 2-amino-6-chloro-N-(4-((tetrahydro-2H-pyran-4-yl)oxy)pyridin-3-yl)pyrazolo[1,5-a]pyrimidine-3-carboxamide] the value was “+++ (Compounds with a Cisplatin sensitization value of <0.02 μM are marked with “+++.”)”.
`Nc1nn2cc(F)cnc2c1C(=O)Nc1cnccc1-n1cccn1` [I-N-26, N-(4-(1H-pyrazol-1-yl)pyridin-3-yl)-2-amino-6-fluoropyrazolo[1,5-a]pyrimidine-3-carboxamide]: the “Cisplatin Sensitization Assay” value is listed as “+ (Compounds with a Cisplatin sensitization value >0.2 μM but <5 μM are marked with “+.”)”.
`NCC1CCN(c2ccncc2NC(=O)c2c(N)nn3cc(Cl)cnc23)CC1` [I-N-91, 2-amino-N-(4-(4-(aminomethyl)piperidin-1-yl)pyridin-3-yl)-6-chloropyrazolo[1,5-a]pyrimidine-3-carboxamide]: the “Cisplatin Sensitization Assay” value is “++ (Compounds with a Cisplatin sensitization value >0.02 μM but <0.2 μM are marked with “++.”)”.
With `Nc1nn2cc(Cl)cnc2c1C(=O)Nc1cnccc1N1CCn2ccnc2C1` [I-N-44, 2-amino-6-chloro-N-(4-(5,6-dihydroimidazo[1,2-a]pyrazin-7(8H)-yl)pyridin-3-yl)pyrazolo[1,5-a]pyrimidine-3-carboxamide], the “Cisplatin Sensitization Assay” value is reported as “++ (Compounds with a Cisplatin sensitization value >0.02 μM but <0.2 μM are marked with “++.”)”.
For `CN(C)CC(=O)N1CCN(c2c(F)cncc2NC(=O)c2c(N)nn3cc(F)cnc23)CC1` [I-N-153, 2-amino-N-(4-(4-(2-(dimethylamino)acetyl)piperazin-1-yl)-5-fluoropyridin-3-yl)-6-fluoropyrazolo[1,5-a]pyrimidine-3-carboxamide] the value was “++ (Compounds with a Cisplatin sensitization value >0.02 μM but <0.2 μM are marked with “++.”)”; for `CN1CCN(C(=O)C2CCN(c3c(F)cncc3NC(=O)c3c(N)nn4cc(F)cnc34)CC2)CC12CC2` [I-G-38, 2-amino-6-fluoro-N-(5-fluoro-4-(4-(4-methyl-4,7-diazaspiro[2.5]octane-7-carbonyl)piperidin-1-yl)pyridin-3-yl)pyrazolo[1,5-a]pyrimidine-3-carboxamide], “+++ (Compounds with a Cisplatin sensitization value of <0.02 μM are marked with “+++.”)”; for `CN1CCc2c(cncc2NC(=O)c2c(N)nn3cc(F)cnc23)C1` [I-C-8, 2-amino-6-fluoro-N-(7-methyl-5,6,7,8-tetrahydro-2,7-naphthyridin-4-yl)pyrazolo[1,5-a]pyrimidine-3-carboxamide], “+ (Compounds with a Cisplatin sensitization value >0.2 μM but <5 μM are marked with “+.”)”.
For `Nc1nn2cc(F)cnc2c1C(=O)Nc1cncc(F)c1N1CCN(CC(=O)N2CCC2)CC1` [I-N-228, 2-amino-N-(4-(4-(2-(azetidin-1-yl)-2-oxoethyl)piperazin-1-yl)-5-fluoropyridin-3-yl)-6-fluoropyrazolo[1,5-a]pyrimidine-3-carboxamide] the value was “+++ (Compounds with a Cisplatin sensitization value of <0.02 μM are marked with “+++.”)”.
Then `Nc1nn2cc(F)cnc2c1C(=O)Nc1cncc(F)c1N1CCN(C2CCOCC2)CC1` [I-N-121, 2-amino-6-fluoro-N-(5-fluoro-4-(4-(tetrahydro-2H-pyran-4-yl)piperazin-1-yl)pyridin-3-yl)pyrazolo[1,5-a]pyrimidine-3-carboxamide], with “+++ (Compounds with a Cisplatin sensitization value of <0.02 μM are marked with “+++.”)”.
`CN1CCN(c2ccncc2NC(=O)c2c(N)nn3cc(Cl)cnc23)CC1CO` (stereo not shown) [I-N-63, 2-amino-6-chloro-N-(4-(3-(hydroxymethyl)-4-methylpiperazin-1-yl)pyridin-3-yl)pyrazolo[1,5-a]pyrimidine-3-carboxamide]: the “Cisplatin Sensitization Assay” value is “++ (Compounds with a Cisplatin sensitization value >0.02 μM but <0.2 μM are marked with “++.”)”.
For `CN(C)CCCN(C)C(=O)C1CCN(c2c(F)cncc2NC(=O)c2c(N)nn3cc(F)cnc23)CC1` [I-G-16, 2-amino-N-(4-(4-((3-(dimethylamino)propyl)(methyl)carbamoyl)piperidin-1-yl)-5-fluoropyridin-3-yl)-6-fluoropyrazolo[1,5-a]pyrimidine-3-carboxamide] the value was “+++ (Compounds with a Cisplatin sensitization value of <0.02 μM are marked with “+++.”)”; for `Cc1cncnc1-c1ccncc1NC(=O)c1c(N)nn2cc(F)cnc12` [I-C-67, 2-amino-6-fluoro-N-(4-(5-methylpyrimidin-4-yl)pyridin-3-yl)pyrazolo[1,5-a]pyrimidine-3-carboxamide], “++ (Compounds with a Cisplatin sensitization value >0.02 μM but <0.2 μM are marked with “++.”)”.
For `Nc1nn2cc(Cl)cnc2c1C(=O)Nc1cnccc1OCCCO` [I-O-53, 2-amino-6-chloro-N-(4-(3-hydroxypropoxy)pyridin-3-yl)pyrazolo[1,5-a]pyrimidine-3-carboxamide], the “Cisplatin Sensitization Assay” value was “+++ (Compounds with a Cisplatin sensitization value of <0.02 μM are marked with “+++.”)”.
As for `Cc1ncc(-c2ccncc2NC(=O)c2c(N)nn3cc(F)cnc23)n1C` [I-C-77, 2-amino-N-(4-(1,2-dimethyl-1H-imidazol-5-yl)pyridin-3-yl)-6-fluoropyrazolo[1,5-a]pyrimidine-3-carboxamide], the “Cisplatin Sensitization Assay” value is on record as “+++ (Compounds with a Cisplatin sensitization value of <0.02 μM are marked with “+++.”)”.
Then `CN1CCC(c2ccncc2NC(=O)c2c(N)nn3cc(F)cnc23)CC1=O` (stereo not shown) [I-C-73, 2-amino-6-fluoro-N-(4-(1-methyl-2-oxopiperidin-4-yl)pyridin-3-yl)pyrazolo[1,5-a]pyrimidine-3-carboxamide], with “++ (Compounds with a Cisplatin sensitization value >0.02 μM but <0.2 μM are marked with “++.”)”; and `Nc1nn2cc(Cl)cnc2c1C(=O)Nc1cnccc1N1CCn2cncc2C1` [I-N-75, 2-amino-6-chloro-N-(4-(5,6-dihydroimidazo[1,5-a]pyrazin-7(8H)-yl)pyridin-3-yl)pyrazolo[1,5-a]pyrimidine-3-carboxamide], with “+++ (Compounds with a Cisplatin sensitization value of <0.02 μM are marked with “+++.”)”.
